Read-outs that look alike come from different tables or passages of the source.
Columns and labels:
[1] = molecular target: T1, Aβ1-42 aggregation (Homo sapiens, UniProt P05067); assay: Interaction matrices of Extract 1 with extracts and curcuminoids in the Aβ1-42 aggregation assay; format: biochemical
T1 construct: carried out with the synthetic Aβ1-42 peptide incubated with the extracts

[2] = test system: phosphorylated tau (Ser199/220 and AT8 antibodies) in Tg2576 mice; assay: Western blot of phosphorylated tau in brain homogenates after oral treatment; format: in vivo; conditions: soluble fraction, oral 0.07% in chow, 6 months
Experimental: The Tg2576 mice, which are engineered to develop AD within ca. 6 months after birth, were purchased from Taconic (Germantown, N.Y.). For oral administration of extracts, a total of 60 (30 female/30 male) Tg2576 mice with a B6/SJL background were employed. Beginning at 8 months of age, Tg2576 treatment mice were administered optimized turmeric Extract 1 and THC in NIH31 chow (0.07% in NIH31 chow, 167 mg/kg/day) or NIH31 chow alone (Control) for 6 months [n=20 (10 female/10 male)]. All mice were sacrificed at 14 months of age for analyses of Aβ levels and Aβ load in the brain according to previously described methods (J. Tan, T. Town, F. Crawford, T. Mori, A. DelleDonne, R. Crescentini, D. Obregon, R. A. Flavell and M. J. Mullan, 2002. Role of CD40 ligand in amyloidosis in transgenic Alzheimer's mice, Nat. Neurosci. 5:1288-1293). […]
Brain homogenates were obtained as previously described above. […] Densitometric analysis was done as previously described using a FluorS Multiimager with Quantity One™ software (BioRad, Hercules, Calif.) (K. Rezai-Zadeh, D. Shytle, N. Sun, T. Mori, H. Hou, D. Jeanniton, J. Ehrhart, K. Townsend, J. Zeng, D. Morgan, J. Hardy, T. Town and J. Tan, 2005. Green tea epigallocatechin-3-gallate (EGCG) modulates amyloid precursor protein cleavage and reduces cerebral amyloidosis in Alzheimer transgenic mice, J. Neurosci. 25:8807-8814).

[3] = test system: IL-4 and IL-2 in splenocytes of Tg2576 mice; assay: Cytokine ELISA of anti-CD3 stimulated primary splenocyte cultures from treated mice; format: in vivo; conditions: splenocytes stimulated 24 h with anti-CD3 antibody
Experimental: FIG. 9 depicts the IL-4 to IL-2 cytokine profile of Extract 1- and THC-treated Tg2576 mice. Following sacrifice, primary cultures of splenocytes were established from the mice and stimulated for 24 hours with anti-CD3 antibody.
The Tg2576 mice, which are engineered to develop AD within ca. 6 months after birth, were purchased from Taconic (Germantown, N.Y.). For oral administration of extracts, a total of 60 (30 female/30 male) Tg2576 mice with a B6/SJL background were employed. […]
As described in the previous studies (J. Tan, T. Town, D. Paris, T. Mori, Z. Suo, F. Crawford, M. P. Mattson, R. A. Flavell and M. Mullan, 1999. Microglial activation resulting from CD40-CD40L interaction after beta-amyloid stimulation, Science. 286:2352-2355; J. Tan, T. Town, M. Saxe, D. Paris, Y. Wu and M. Mullan, 1999. Ligation of microglial CD40 results in p44/42 mitogen-activated protein kinase-dependent TNF-alpha production that is opposed by TGF-beta 1 and IL-10, J. Immunol. 163:6614-6621) cell cultured media were collected for measurement of cytokines by commercial cytokine ELISA kits. […] Cytokines were quantified using commercially available ELISAs (BioSource International, Inc., Camarillo, Calif.) that allow for detection of IL-2 and IL-4. […]

[4] = test system: Aβ1-40, 42 peptides secreted from SweAPP N2a cells; assay: Aβ secretion ELISA in conditioned media of SweAPP N2a cells; format: cell-based; conditions: 3-30 μg/ml, 12 h
[5] = molecular target: T2, Aβ1-42 peptide (Homo sapiens, UniProt P05067); assay: Amyloid aggregation assay (thioflavin T fluorescence); format: biochemical; conditions: 0 to 30 μg mL^−1, 120 h, 37° C.
T2 construct: carried out with the synthetic Aβ1-42 peptide incubated with the extracts
T2 sequence (P05067 672-713): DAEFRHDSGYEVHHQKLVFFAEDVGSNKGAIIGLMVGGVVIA

T1 sequence (P05067 672-713): as above

For `COc1cc(CCC(=O)CC(=O)CCc2ccc(O)c(OC)c2)ccc1O` [THC, tetrahydrocurcumin], the IC50 [1] was 95.3 µM, the “reduction of tau hyper-phosphorylation compared to control” value [2] was “ca. 40%” and the “ratio of IL-4 to IL-2 cytokine levels” value [3] was 0.8.

For `COc1cc(/C=C/C(O)=C/C(=O)/C=C/c2ccc(O)cc2)ccc1O` [DMC, demethoxycurcumin], the “inhibition of Aβ generation” value [4] was “ca. 10%” and the IC50 ([1]; extract or standard alone, Aβ1-42 aggregation, read-out: IC50 Individual (converted)) was 1700 µM.

With `COc1cc(/C=C/C(=O)CC(=O)/C=C/c2ccc(O)c(OC)c2)ccc1O` [Curcumin, curcumin] the “inhibition of Aβ1-42 aggregation” value [5] was “effective” and the Effect ([1]; interaction with Extract 1 (synergistic, antagonistic or additive)) was “Additive”.
